These results are taken from PMC7000758 (Nature Communications, 2020).

The term half-life denotes the time in which the quantity being followed falls by half.

Values joined by “and” are separate entries in the source; they are usually repeats but may differ in a detail not shown here. Equal entries are not always repeated. “Also recorded” adds a separate entry of the source. Where two headings read alike, the source gives them in different places.

Series [1] has as its system choroidal NV at Bruch's membrane rupture sites. The experiment in a line: Mouse model of laser-induced choroidal NV (type 2). The series is classed as in vivo, C57BL/6 mice. To be noted: for CNVsize: individual eyes. The procedure: Mice were treated in accordance with the Association for Research in Vision and Ophthalmology Guidelines on the care and use of animals in research. All protocols were approved by the Animal Care and Use Committee of the Johns Hopkins University School of Medicine. Laser photocoagulation-induced rupture of Bruch’s membrane was used to generate choroidal NV[34]. […] One week after rupture of Bruch’s membrane, mice were euthanized, eyes were removed, anterior segments, retinas, and vitreous was removed, and eye cups were stained with fluorescein isothiocyanate (FITC)-conjugated GSA (Vector Laboratories, Burlingame, CA), and flat mounted. Flat mounts were examined by fluorescence microscopy and the area of each choroidal NV was measured by image analysis with Image-Pro Plus software (Media Cybernetics, Silver Spring, MD) by an observer masked with respect to experimental groups. The three areas obtained in each eye were averaged to give a single experimental value.

The nature of series [2]: Pharmacokinetic study in mice (drug remaining in eye, LC-MS). The format is in vivo, C57BL/6N mice. To be noted: for Remaining Drug (Normalized against T0) (%): mouse eye, intravitreous 1 µg sunitinib or equivalent. From the text: Twenty male or female 5–7-week-old C57BL/6N mice were anesthetized and the pupils were dilated as previously described. […] […], 5 mice from each condition were euthanized and the whole globes were collected and transferred to a bioanalytical facility for measurement of drug levels by liquid chromatography–mass spectrometry (LC–MS). The amount of drug remaining in the eye at 30 days was compared to and presented as a percentage of the initial dose injected in the eye.

Series [3] in a line: Melanin binding of sunitinib in vitro. The format is in vitro ADME, sepia officialis. The conditions noted are these: for percentage of melanin-bound sunitinib: 10 mg melanin in PBS, 1 h.
The nature of series [4]: Cataract after intravitreous injection in mice. The conditions noted are these: intravitreous doses of free sunitinib >0.5 µg. The format is in vivo, C57BL/6 mice. An excerpt: The murine model of laser-induced rupture of Bruch’s membrane results in choroidal NV that is similar to type 2 choroidal NV in patients with NVAMD, because the new vessels originate from the choroid and penetrate through Bruch’s membrane and the RPE into the subretinal space. Studies in this model helped to implicate VEGF as a critical stimulus for NVAMD[4] and predicted the clinical benefits seen with aflibercept, a recombinant VEGF-neutralizing protein commonly used to treat patients with NVAMD[6],[35].

For series [5] the following is noted: for Average release (%): Fig 1b dissolution of suspension.
Description: At selected time points, 3 ml of the release medium was collected and replaced with 3 ml fresh release medium.
The conditions of series [6]: cited from earlier work.
Details of series [7]: method as in rabbit PK study previously conducted by the authors. To be noted: rabbit; ref rabbit PK study previously conducted by the authors; cited from earlier work.
In a further series the test system is subretinal NV. Description: Subretinal NV in rho/VEGF transgenic mice (type 3 choroidal NV). To be noted: for Mean area of sunretinal NV per retina: Fig 4b, 40 µg at P14, individual retinas. The series is classed as in vivo. The procedure:
At P21, P28, P35, or P42, mice were euthanized and retinas were stained with FITC-labeled GSA lectin and flat mounted with photoreceptors facing up. Retinal flat mounts were examined by fluorescence microscopy and the area of subretinal NV was measured by image analysis by a masked observer.

Series [8] deals with vascular leakage (vitreous albumin). Description: Measurement of albumin in vitreous samples (ELISA). The series is classed as in vivo, rho/VEGF mice. From the text:
Vitreous samples were obtained by inserting a micropipette into the vitreous cavity and gently aspirating the vitreous. Using the manufacturer’s instructions, a mouse albumin ELISA kit (ab108791; […] The plate wa read at 450 and 570 nm with SpectraMax Plus (Molecular Devices, San Jose, CA).
For orientation: ELISA stands for enzyme-linked immunosorbent assay.

A further series deals with rhodopsin kinase (GRK-1). The experiment in a line: Photoreceptor survival: rhodopsin kinase (GRK-1)/actin immunoblot of retinal homogenates. The format is in vivo, rho/VEGF mice. The protocol:
At P42, some mice were euthanized and eyes were marked at the 12:00 pole and frozen in embedding compound. […] At […] five mice were euthanized and retinas were dissected from each eye and homogenized in 150 μl lysis buffer (Abcam, Cambridge, MA) followed by high speed centrifuge (16,000 × g, 15 min). Supernatants were collected in pre-chilled eppendorf tubes. […] Membranes were probed with anti-GRK1 antibody (1:1000; ThermoFischer Scientific, Catalog no. PA5-13725, Lot no. […] Catalog no. A2066, Lot no. 019M4777V, Sigma Life Science, St. Louis, MO) overnight at 4 °C. […] Louis, MO) was added followed by incubation in SuperSignal West Dura Extended Duration Substrate (Thermofisher), and Western blots were imaged and analyzed with a Bio-mad imaging system.

The next series has as its system VEGF-induced leukostasis. The experiment in a line: Retinal leukostasis (concanavalin A perfusion). The series is classed as in vivo, C57BL/6 mice. The conditions noted are these: 40 µg. The protocol: Leukostasis was measured by staining leukocytes with rhodamine- or FITC-labeled conA[52]. […] Vector Labs Thermofisher). The vasculature was flushed for 4 min with PBS to remove residual unbound conn A. […] Retinas were examined by fluorescence microscopy and the number of intravascular leukocytes throughout the entire retina were counted by an investigator masked with respect to treatment group. […] After washing, retinas were incubated in Alexa Fluor 594-conjugated goat anti-rat secondary antibody (1:500; A-11007 Invitrogen) for 1 h at room temperature. Retinas were washed, flat mounted and examined by fluorescence microscopy.

The subject of series [9] is photoreceptors (outer nuclear layer). Description: Photoreceptor survival: ONL thickness in mice with type 3 choroidal NV. The conditions noted are these: for ONL thickness: Fig 5b, 40 µg, P42, individual eyes. The format is in vivo, rho/VEGF mice.

`CCN(CC)CCNC(=O)c1c(C)[nH]c(/C=C2\C(=O)Nc3ccc(F)cc32)c1C` [sunitinib, reference compound]: the CNVsize in [1] (Fig 2c, intravitreous free sunitinib 0.1µg, 1 week) is 0.01929 mm2 and 0.0114 mm2 and 0.03268 mm2 and 0.02288 mm2 and 0.01524 mm2 and 0.02254 mm2 and 0.02987 mm2 and 0.01948 mm2 and 0.01091 mm2; in series [1] (Fig 2c, intravitreous free sunitinib 0.5µg, 1 week), 0.008346 mm2 and 0.0258 mm2 and 0.01396 mm2 and 0.0209 mm2 and 0.02253 mm2 and 0.02124 mm2 and 0.01904 mm2 and 0.01077 mm2 and 0.02107 mm2 and 0.01493 mm2. Also, the “mean area of choroidal NV vs PBS fellow eye” value in [1] (intravitreous 0.5 or 0.1 µg free sunitinib, 1 week) is given as “no significant difference; also recorded: no significant reduction”. The half-life in series [2] (both sexes, C57BL/6N, mouse, whole eye (globe), other: intravitreous injection, 1 µg, read-out: overall half-life in mouse eyes (converted)) was ~50.4 h. In addition, the “Remaining Drug (Normalized against T0) (%)” value in series [2] (day 7, listed as Sunitinib Suspension) is reported as 10.1%; in [2] (day 7, listed as free sunitinib) it was 10.1±0.7%; in series [2] (day 30, listed as Sunitinib Suspension) it was 8.8%; in series [2] (day 30, listed as sunitinib drug suspension), 9%. Also, the “percentage of drug bound to melanin” value in series [3] (at a ratio of <10) is recorded as 96–99.8%. Further, the entries for the “percentage of melanin-bound sunitinib” value in series [3] (sunitinib-to-melanin mass ratio 0.001%) and in [3] (sunitinib-to-melanin mass ratio 20%) were 99.8% and ~ 80%, respectively. Moreover, the cataract result in series [4] is given as “severe cataract”. In addition, the “Average release (%)” value in series [5] (0.125 days) is given as 34.3%; in [5] (1 day), 51.9%; in [5] (3 days), 68.4%; in [5] (10 days), 89.0%; in series [5] (17 days) it was 95.0%; in series [5] (24 days), 99.5%. Moreover, the “Average release (%)” value in series [5] (30 days) was 100.0%. In addition, in [5] (Fig. 1b, open squares), the “behaviour in release medium in vitro” value was “rapidly eluted and dissolved in release medium”. Further, the “solubility in acidic aqueous solutions” value in series [6] (pH 1.2–6.8) is “high solubility”. For the same compound, the aqueous solubility result in series [6] (pH 7.4) was “low aqueous solubility”. Also, the vitreous half-life in series [7] is ~ 2 days.
aflibercept: the CNVsize in [1] (Fig 2d, intravitreous 40 µg, 1W) was 0.008066 mm2 and 0.009648 mm2 and 0.01333 mm2 and 0.01287 mm2 and 0.01253 mm2 and 0.01268 mm2 and 0.009735 mm2 and 0.0107 mm2; in series [1] (Fig 2d, intravitreous 40 µg, 9W), 0.03895 mm2 and 0.02251 mm2 and 0.03758 mm2 and 0.02161 mm2 and 0.01535 mm2 and 0.02051 mm2 and 0.02183 mm2; in series [1] (Fig 2d, intravitreous 40 µg, 15W, listed as Alfibercept), 0.02431 mm2 and 0.01432 mm2 and 0.01526 mm2 and 0.01738 mm2 and 0.01801 mm2 and 0.01547 mm2. The “choroidal NV vs PBS fellow eye” value in series [1] (intravitreous 40 µg, 1 week after injection) is “significant suppression; also recorded: significant reduction”. The “Mean area of sunretinal NV per retina” value in the series with subretinal NV (P21) was 0.006443 mm2 and 0.004033 mm2 and 0.006827 mm2 and 0.01579 mm2 and 0.001837 mm2 and 0.02155 mm2 and 0.01187 mm2 and 0.0074 mm2 and 0.009835 mm2 and 0.01142 mm2 and 0.01439 mm2 and 0.004674 mm2; in the series with subretinal NV (P28), 0.01232 mm2 and 0.01247 mm2 and 0.01867 mm2 and 0.01277 mm2 and 0.01806 mm2 and 0.01223 mm2 and 0.007648 mm2 and 0.002213 mm2 and 0.009102 mm2; in the series on subretinal NV (P35) it was 0.01325 mm2 and 0.02508 mm2 and 0.02389 mm2 and 0.02314 mm2 and 0.01559 mm2 and 0.02014 mm2 and 0.01286 mm2 and 0.008195 mm2 and 0.01062 mm2 and 0.006501 mm2 and 0.02165 mm2 and 0.01911 mm2 and 0.01968 mm2 and 0.008771 mm2 and 0.02218 mm2 and 0.008675 mm2; in the series on subretinal NV (P42), 0.01663 mm2 and 0.008316 mm2 and 0.01691 mm2 and 0.01919 mm2 and 0.01735 mm2 and 0.02425 mm2 and 0.00731 mm2 and 0.02809 mm2 and 0.01595 mm2. Moreover, the “duration of inhibition of subretinal NV” value in the series with subretinal NV (intravitreous 40 µg) came to 1 week. In addition, in the series on subretinal NV (intravitreous 40 µg at P14, P21), the “mean area of NV per retina vs PBS eyes” value is recorded as “significantly less; also recorded: significantly lower”. Further, the “Concentrate of Albmin” value in [8] (Fig 4d, vitreous, 1 week after 40 µg at P28, individual eyes) is 0.1634 µg and 0.1282 µg and 0.1305 µg and 0.1935 µg and 0.4253 µg. In series [8] (P28 rho/VEGF mice, 1 week after intravitreous 40 µg), the “mean vitreous albumin concentration vs PBS eyes” value is listed as “significantly less; also recorded: significant reduction”. The “rhodopsin kinase/actin ratio vs PBS eyes” value with rhodopsin kinase (GRK-1) (40 µg at P14, P49) is reported as “no difference”. Also, in the series on rhodopsin kinase (GRK-1) (Fig 5d, 40 µg, P49, individual retinas), the GRK-1/Actin is 0.8885 and 0.8156 and 1.021 and 0.9707 and 0.8036. For the same compound, the “mean number of adherent intravascular leukocytes vs PBS eyes” value in the series with VEGF-induced leukostasis (200 ng VEGF one week later, 24 h) was “significant reduction”. In addition, the “Intravascular leukocytes per retina” value in the series on VEGF-induced leukostasis (Fig 6a, individual retinas) was 51 and 28 and 33 and 20 and 18 and 23 and 44 and 54. Besides, in series [9] (40 µg at P14, measured at P42), the “mean ONL thickness vs PBS eyes” value is given as “no significant difference”. In addition, the ONL thickness in series [9] (location I1) is 0.0549 mm and 0.04725 mm and 0.03173 mm and 0.03578 mm and 0.03893 mm and 0.04095 mm and 0.03375 mm; in series [9] (location I2), 0.0504 mm and 0.04905 mm and 0.03735 mm and 0.04072 mm and 0.04027 mm and 0.05108 mm and 0.0387 mm; in series [9] (location I3), 0.05017 mm and 0.03982 mm and 0.03465 mm and 0.03645 mm and 0.0351 mm and 0.04972 mm and 0.04208 mm; in series [9] (location S1), 0.04253 mm and 0.0441 mm and 0.03465 mm and 0.0414 mm and 0.04478 mm and 0.04545 mm; in series [9] (location S2) it was 0.04208 mm and 0.05085 mm and 0.0423 mm and 0.04275 mm and 0.04905 mm and 0.03982 mm and 0.0504 mm; in series [9] (location S3), 0.04163 mm and 0.0486 mm and 0.03825 mm and 0.04095 mm and 0.04455 mm and 0.03915 mm and 0.0495 mm.
